Source: patent US20050064383A1, “Methods and apparatus for producing gender enriched sperm” (priority 2000, published 2005)

Legend:
[1] = tested on: bull sperm; test: Overnight low temperature staining of bull sperm with Hoechst 33342, separation into X- and Y-sperm by flow cytometry; type: cell-based; details: citrate buffer pH 6.9
Protocol: (§1) Bull sperm in citrate buffer at pH 6.9-7.0 is sent from collection facility to sorter facility by same-day delivery at 18° C. Upon receipt the sperm is divided into three portions and stored and stained overnight with Hoechst 33342 dye at 18° C., 20° C., or 22° C. (all in citrate buffer at pH 6.9).

[2] = tested on: bull sperm; test: Staining of bull sperm with Hoechst 33342 in TEST buffer, split index on Coulter Epics flow cytometer; type: cell-based
Protocol: Bull semen was collected from a sexually mature bull using an artificial vagina and the sample was diluted with citrate buffer (pH 7.0) at 1 part semen: 3 parts buffer. The sample was transferred to the flow cytometry laboratory at 18° C. The concentration of the sample is determined using a hemocytometer and the cells were diluted with an appropriate amount of TEST buffer (pH 7.35) to obtain 100 million sperm per mL. Ten microliters of a stock concentration (5 mg/ml in dH2O) of Hoechst 33342 was added to the sample of sperm and the cells were incubated at 25° C. for up to 4 hours. A second population of cells was handled in like manner but was incubated at 35° C. for 1 hour to serve as a positive control. A third population of cells was handled in like manner but the buffer pH is 7.2 instead of pH 7.35 to determine if buffer pH influences uptake of Hoechst 33342. At one-hour intervals for up to 4 hours, 200 μL micro aliquots were removed from the samples and evaluated using a Coulter Epics flow cytometer. The split index information was collected for each sample per treatment group. [table]

[3] = tested on: bull sperm; test: Staining of bull sperm with Hoechst dye at 24° C. in citrate or HEPES buffer, separation by flow cytometry; type: cell-based
Protocol: Bull sperm are collected at a collection facility, extended in citrate buffer pH 6.9 and sent at 18° C. by overnight express mail to a sorting facility. The sample is divided into two portions, centrifuged to separate sperm from supernatant, and each portion resuspended respectively in citrate buffer and HEPES buffer, both at pH 7.4. 0.1% BSA is present in the HEPES buffer.

[4] = Buffer solubility by HPLC; details: maximum measurable 90 micromolar
Protocol: One microliter (μL) of the stock solution was then added to 110 μL of aqueous buffer solution placed in an HPLC (high performance liquid chromatography) vial and mixed by inverting a number of times. The samples were allowed to stand for 30 minutes and then centrifuged for 30 minutes. The centrifugation is required to deposit suspended material that could interfere with the analysis to the side of the vial. The solutions were then analyzed by HPLC by sampling the solution without touching the vial bottom or sides. Shown below are the measured quantities remaining in solution in the various buffers.

[5] = tested on: bull sperm; test: Sperm motility/viability after overnight incubation with HO dye; type: cell-based; details: overnight incubation at 18, 20 or 22° C., 0 hours
Protocol: as §1

## CCOc1ccc(-c2nc3ccc(-c4nc5ccc(N6CCN(C)CC6)cc5[nH]4)cc3[nH]2)cc1 [Hoechst 33342]
[1]; stained 18° C. o/n, 0 hr incubation @ RT
  separation of Y- and X-bearing sperm by flow cytometry: no separation
[1]; stained 18° C. o/n, 1.5 hr incubation @ RT
  separation of Y- and X-bearing sperm by flow cytometry: no separation
[1]; stained 18° C. o/n, 5.0 hr incubation @ RT
  separation of Y- and X-bearing sperm by flow cytometry: no separation
[1]; stained 20° C. o/n, 0 hr incubation @ RT
  separation of Y- and X-bearing sperm by flow cytometry: no separation
[1]; stained 20° C. o/n, 1.5 hr incubation @ RT
  separation of Y- and X-bearing sperm by flow cytometry: no separation
[1]; stained 20° C. o/n, 5.0 hr incubation @ RT
  separation of Y- and X-bearing sperm by flow cytometry: no separation
[1]; stained 22° C. o/n, 0 hr incubation @ RT
  separation of Y- and X-bearing sperm by flow cytometry: no separation
[2]; 25° C. in TEST pH 7.2
  1 h Split index: 0%
  2 h split index: 0%
  3 h split index: 0%
  4 h split index: 0%
[2]; 25° C. in TEST pH 7.35
  1 h Split index: 0%
  2 h split index: 0%
  3 h split index: 10%
  4 h split index: 30%
[2]; 35° C. control (positive control), 1 hour
  1 h Split index: 30%
[3]; Sperm in HEPES buffer, pH 7.4, 0.1% BSA
  Sort results after 2.5 h incubation at room temperature (24° C.): Sperm were separated into X and Y
[3]; Sperm in NaCitrate buffer, pH 7.4
  Sort results after 2.5 h incubation at room temperature (24° C.): No separation into X and Y
[4]; HEPES Buffer pH 6.85
  quantity remaining in solution (solubility): 79 µM
[4]; HEPES Buffer pH 7.02
  quantity remaining in solution (solubility): 73 µM
[4]; HEPES Buffer pH 7.23
  quantity remaining in solution (solubility): 27 µM
[4]; HEPES Buffer pH 7.36
  quantity remaining in solution (solubility): 23 µM
[4]; HEPES Buffer pH 7.52
  quantity remaining in solution (solubility): 36 µM
[4]; TES Buffer pH 6.85
  quantity remaining in solution (solubility): 79 µM
[4]; TES Buffer pH 6.98
  quantity remaining in solution (solubility): 80 µM
[4]; TES Buffer pH 7.19
  quantity remaining in solution (solubility): 78 µM
[4]; TES Buffer pH 7.34
  quantity remaining in solution (solubility): 75 µM
[4]; TES Buffer pH 7.54
  quantity remaining in solution (solubility): 57 µM
[4]; Tris Buffer pH 6.76
  quantity remaining in solution (solubility): 34 µM
[4]; Tris Buffer pH 6.95
  quantity remaining in solution (solubility): 42 µM
[4]; Tris Buffer pH 7.15
  quantity remaining in solution (solubility): 49 µM
[4]; Tris Buffer pH 7.36
  quantity remaining in solution (solubility): 22 µM
[4]; Tris Buffer pH 7.53
  quantity remaining in solution (solubility): 15 µM
[5]
  effect of prolonged exposure to dye medium on sperm viability (motility): does not compromise sperm viability
